From the supplement of paper PMC10307832

Assays:
Experiment in all cases: relative viability (nuclei count vs DMSO), 5 days (fraction); higher = more cells survive
[1] = compound: CC(C)CCN1c2nc(Nc3cc(F)c(O)c(F)c3)ncc2N(C)C(=O)C1C [BI-D1870] + Cc1nc(NC(=O)N2CCC[C@H]2C(N)=O)sc1-c1ccnc(C(C)(C)C(F)(F)F)c1 [Alpelisib] (partner 2 µM)
How it was run: (§1)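 One day after seeding in 1536-well plates, lung cancer cell lines were dosed by pin tool. Dosing was either single-drug or a fixed anchor-drug dose plus five library-drug doses (not always all listed) in √10 steps. After 5 days, nuclei were stained in one fix-and-stain step and counted on 4× images, and relative viability is the nuclei count of treated wells over that of vehicle wells, given as the median of duplicate plates.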

[2] = compound: CC(C)CCN1c2nc(Nc3cc(F)c(O)c(F)c3)ncc2N(C)C(=O)C1C [BI-D1870] + Cc1nc(Nc2ncc(C(=O)Nc3c(C)cccc3Cl)s2)cc(N2CCN(CCO)CC2)n1 [Dasatinib] (partner 0.075 µM)
How it was run: as §1

[3] = compound: O=c1ncccn1[C@@H]1O[C@H](CO)[C@@H](O)[C@H]1O [Zebularine] + COc1cc2c(Oc3ccc(NC(=O)C4(C(=O)Nc5ccc(F)cc5)CC4)cc3F)ccnc2cc1OCCCN1CCOCC1 [Foretinib] (partner 0.25 µM)
How it was run: as §1

[4] = compound: O=c1ncccn1[C@@H]1O[C@H](CO)[C@@H](O)[C@H]1O [Zebularine] + C[C@@H](Oc1cc(-c2cnn(C3CCNCC3)c2)cnc1N)c1c(Cl)ccc(F)c1Cl [Crizotinib] (partner 1 µM)
How it was run: as §1

| Cell Line | relative viability ([1]; first compound 0.04 µM) | relative viability ([1]; first compound 0.1265 µM) | relative viability ([1]; first compound 0.4 µM) | relative viability ([1]; first compound 1.265 µM) | relative viability ([1]; first compound 4 µM) | relative viability ([2]; first compound 0.04 µM) | relative viability ([2]; first compound 0.1265 µM) | relative viability ([2]; first compound 0.4 µM) | relative viability ([2]; first compound 1.265 µM) | relative viability ([2]; first compound 4 µM) | relative viability ([3]; first compound 1 µM) | relative viability ([3]; first compound 3.162 µM) | relative viability ([3]; first compound 10 µM) | relative viability ([3]; first compound 31.62 µM) | relative viability ([3]; first compound 100 µM) | relative viability ([4]; first compound 1 µM) | relative viability ([4]; first compound 3.162 µM) | relative viability ([4]; first compound 10 µM) | relative viability ([4]; first compound 31.62 µM) | relative viability ([4]; first compound 100 µM) |
| --- | --- | --- | --- | --- | --- | --- | --- | --- | --- | --- | --- | --- | --- | --- | --- | --- | --- | --- | --- | --- |
| HCC-78 | 0.323 | 0.279 | 0.301 | 0.321 | 0.246 | 0.362 | 0.382 | 0.422 | 0.442 | 0.33 | 0.523 | 0.547 | 0.53 | 0.584 | 0.477 | 0.336 | 0.335 | 0.298 | 0.359 | 0.252 |
| HCC-366 | 0.47 | 0.351 | 0.344 | 0.514 | 0.359 | 0.633 | 0.528 | 0.603 | 0.731 | 0.427 | 0.935 | 0.922 | 0.797 | 0.65 | 0.163 | 0.774 | 0.637 | 0.2 | 0.265 | 0.133 |
| HCC-827 | 0.991 | 0.959 | 0.916 | 0.965 | 0.907 | 0.383 | 0.373 | 0.321 | 0.412 | 0.26 | 1.15 | 1.07 | 0.718 | 0.714 | 0.317 | 1.07 | 0.907 | 0.785 | 0.647 | 0.339 |
| HOP-62 | 1.21 | 1 | 1.02 | 1.05 | 1.2 | 0.707 | 0.675 | 0.603 | 0.66 | 0.524 | 1.28 | 1.15 | 0.335 | 0.252 | 0.186 | 0.923 | 0.245 | 0.601 | 0.209 | 0.129 |
| IA-LM | 0.687 | 0.673 | 0.759 | 0.765 | 0.446 |  |  |  |  |  | 1.1 | 1.14 |  | 1.34 | 0.877 | 1.07 | 0.718 |  | 1.1 | 0.609 |
| LC-2-ad | 0.962 | 0.836 | 0.849 | 0.855 | 0.701 | 1.05 | 0.576 | 0.473 | 0.578 | 0.43 | 0.868 | 0.828 | 0.717 | 0.674 | 0.454 | 0.498 | 0.434 | 0.363 | 0.377 | 0.249 |
| LCLC-97TM1 | 0.254 | 0.218 | 0.219 | 0.276 | 0.188 | 0.932 | 0.833 | 0.947 | 0.899 | 0.709 | 0.929 | 1 | 0.704 | 0.27 | 0.212 | 0.355 | 0.291 | 0.145 | 0.121 | 0.12 |
| LCLC-103H | 0.96 | 0.937 | 0.864 | 1.1 | 0.874 | 0.537 | 0.38 | 0.454 | 0.469 | 0.469 | 0.785 | 0.861 | 0.456 | 0.78 | 0.469 | 1.07 | 1.11 | 0.867 | 1.07 | 0.862 |
| LK-2 | 1.22 | 1.11 | 1.11 | 1.32 | 0.608 | 0.442 | 0.359 | 0.239 | 0.241 | 0.281 | 1.33 | 1.08 | 0.529 | 0.756 | 0.403 | 0.217 | 0.236 | 0.266 | 0.209 | 0.23 |
| LOU-NH91 | 0.811 | 0.796 | 0.753 | 0.735 | 0.605 | 0.582 | 0.527 | 0.516 | 0.595 | 0.458 | 0.95 | 0.888 | 0.866 | 0.947 | 0.567 | 0.713 | 0.732 | 0.693 | 0.738 | 0.647 |
| NCI-H522 |  |  |  |  |  | 0.91 | 0.874 | 0.777 | 0.99 | 0.926 |  |  |  |  |  |  |  |  |  |  |
| NCI-H1299 | 1.05 | 1.04 | 1.07 | 1.15 | 0.993 |  |  |  |  |  | 1.12 | 1.05 | 0.947 | 1.11 | 0.549 | 0.963 | 0.921 | 0.788 | 0.893 | 0.566 |
| NCI-H1395 | 1.56 | 1.04 | 1.11 | 1.05 | 1.08 | 0.471 | 0.432 | 0.428 | 0.359 | 0.384 | 0.852 | 0.961 | 0.772 | 0.608 | 0.445 |  |  |  |  |  |
| NCI-H1623 |  |  |  |  |  | 0.558 | 0.581 | 0.527 | 0.473 | 0.452 | 1 | 0.733 | 0.723 | 0.791 | 0.484 |  |  |  |  |  |
| NCI-H1650 |  |  |  |  |  | 0.266 | 0.393 | 0.32 | 0.281 | 0.273 | 1.26 | 1.02 | 0.905 | 1.46 | 1.07 | 1.04 | 0.788 |  | 1.13 | 0.86 |
| NCI-H1703 | 0.263 | 0.341 | 0.301 | 0.379 | 0.305 |  |  |  |  |  | 0.338 | 0.285 |  | 0.35 | 0.389 | 0.623 | 0.852 |  | 0.67 | 0.913 |
| NCI-H1792 | 0.724 | 0.677 | 0.641 | 0.736 | 0.538 | 0.841 | 0.68 | 0.599 | 0.829 | 0.645 |  |  |  |  |  | 1.06 | 0.876 | 0.381 | 0.386 | 0.339 |
| NCI-H1793 | 0.647 | 0.607 | 0.537 | 0.69 | 0.719 | 0.423 | 0.334 | 0.396 | 0.39 | 0.309 | 0.685 | 0.84 |  | 0.573 | 0.207 |  |  |  |  |  |
| NCI-H2342 |  |  |  |  |  | 0.333 | 0.313 | 0.315 | 0.329 | 0.406 | 1.33 | 1.07 | 0.802 | 0.953 | 0.748 |  |  |  |  |  |
| SW 900 |  |  |  |  |  | 0.66 | 0.456 | 0.662 | 0.499 | 0.338 | 1.28 | 0.633 | 0.545 | 0.762 | 0.498 |  |  |  |  |  |
